For 65 compounds, melting point results are on record in a melting point compilation (Tetko et al.; mined from patent text by program, amines drawn as free bases though some values may be those of a salt).

Each structure is given as a SMILES string.

Usually melting point stands for the temperature, or range, at which the solid turns liquid. `CCOC(=O)[C@]1(O)C=C[C@@H](NC(C)=O)[C@@H]2OC(C)(C)O[C@@H]21`: the melting point lay within 97 to 99 °C. `O=C(O)c1cc(Cl)ccc1-n1cccc1` returned a melting point of 178 °C. With `CC(=O)C1CC2=C(CO1)C(=O)c1ccccc1C2=O` (stereo not given) the figure was 135 to 136 °C; with `Cc1ccccc1NC(=N)NC1CCCCC1`, 145 to 146 °C; with `CC(C)COc1ccc(-c2nc3c(C(=O)O)cccc3[nH]2)cc1C#N`, 299 to 302 °C. `COc1ccc(CNc2nc(CCCC(=O)O)nc3[nH]c4ccccc4c23)cc1Cl`: the melting point amounted to 143 °C. Regarding `CC1CC(O)=CC2=CCC3C4CCC(O)C4(C)CCC3C21C` (stereo not given), the melting point was in the range of 111 to 112 °C. On to `Nc1ccc(C(=O)c2ccccn2)cc1N`, for which the melting point fell in the range of 137 to 138 °C. Take `O=c1c2cccnc2n(-c2cccc(Cl)c2)c2ccsc12`: the melting point was 264 to 267 °C. The result for `COc1ccc(S(=O)(=O)Nc2ccc(F)cc2NC(=O)c2ccccc2)cc1` reads 153 to 154 °C; that for `COc1cc2c(Nc3ccc(Cl)cc3F)ncnc2cc1OCCCNC(=O)OCC(C)C`, 136 to 137 °C. As for `Fc1cccc(F)c1CCNC(=S)Nc1ccccn1`, the melting point fell in the range of 157 to 160 °C.

The compound `CNC(=O)ON=C1Oc2ccccc2OC1(C)C` had a melting point of 174 to 176 °C.

For `N#Cc1cnc2c(sc3ccc([N+](=O)[O-])cc32)c1Nc1ccc(Cl)cc1Cl`, the melting point fell in the range of 210 to 213 °C. With `CCc1c2c(nn1CC)c(N)nc1cc(OC)ccc12` the figure was 210 to 211 °C; with `CCc1cc(Oc2c(Cl)cc(C(F)(F)F)cc2Cl)n[nH]1`, 118 to 121 °C. The result for `CCCCCCc1ccc(-c2ccc(-c3ncc(C(N)=O)cn3)cc2)cc1` reads greater than 260 °C. The result for `CS(=O)c1nsc(Cl)n1` (stereo not given) reads 72 °C. For the compound `CCN(CC)CCCC1CCN(CCNC(=O)N2c3ccccc3C(=O)Nc3cccnc32)CC1`, the melting point is 165 to 166 °C. The result for `N#Cc1ccc(Br)cc1Br` reads 76 to 78 °C. The result for `COc1cc(N2CCN(C)CC2)ccc1-c1cnn2c(N)c(-c3cccc(Cl)c3)c(C)nc12` reads 174 to 178 °C; that for `COc1cc(C(C)=O)c(OC)c2c1C(C)(C)CCC2(C)C`, 97 °C; that for `Cc1nc(-c2ccc(N(C)C)cc2)sc1C(=O)O`, 226 to 231 °C.

Consider `COC(=O)C1=C(C)NC(C)=C(C(=O)OCC2CCCO2)C1c1cccc(Cl)c1Cl` (stereo not given), for which the melting point fell in the range of 172 to 173 °C.

For the compound `CCCCOC(=O)CCCCSc1cc(C)nc(N)n1`, the melting point was in the range of 45 to 47 °C. With `CNS(=O)(=O)c1cc(C(=O)CCCCCl)cc2c1CCC2` the figure was 107 to 109 °C. `CC(=O)c1ccc(S(=O)(=O)Nc2ccc(Cl)cn2)cc1` came in with a melting point of 181 to 182 °C. With `Cn1ccnc1Sc1ccc(Nc2c(C#N)cnc3cc(/C=C/CO)ccc23)cc1Cl` the figure was 220 to 240 °C. The result for `COc1ccc(/C=C/c2nc3c([nH]2)c(=O)n(C)c(=O)n3C)c(Cl)c1OC` reads 242 °C. With `CCC(C)COc1ccc(-c2ccc(O)c(Br)c2)cc1` (stereo not given) the figure was 49.4 °C.

For the compound `O=C1c2ccc([N+](=O)[O-])cc2CC1Br` (stereo not given), the melting point was in the range of 88.5 to 90.5 °C.

`Cc1cc(Cc2cc(C(F)(F)F)cc(C(F)(F)F)c2)ccc1NC(=O)c1cccc(Cl)c1C(=O)N[C@@H](C)CS(C)(=O)=O` returned a melting point of 155 to 158 °C. `CC(=O)c1c(C)[nH]c(-c2ccccc2C)c1NCc1ccc(Cl)cc1`: the melting point lay within 167 to 170 °C.

The compound `CCOC(=O)c1[nH]c2ccc(Cl)cc2c1Cc1ccccc1` yielded a melting point of 196 to 197 °C. With `NC(=O)c1c[nH]c2cc(Cl)c([N+](=O)[O-])cc2c1=O` the figure was 298 to 300 °C; with `CC(CC(=O)O)CC(=O)N(c1ccccc1)c1cc(C(C)(C)C)c(O)c(C(C)(C)C)c1` (stereo not given), 153 to 155 °C; with `CCOC(=O)c1cn(C2CC2)c2c(Br)c(F)c(F)cc2c1=O`, 164 to 168 °C.

`CCCc1ccc(C(=O)OCC)n1Cc1ccc(-c2ccccc2C(=O)O)cc1` came in with a melting point of 111 to 115 °C.

The compound `CC1(C)OCC(C(CS(=O)(=O)c2ccc(-c3ccc(C(F)(F)F)cc3)cc2)N(O)C=O)O1` (stereo not given) returned a melting point of 204 to 205 °C. With `O=C(O)c1ccccc1Nc1ccc(CCCc2ccc([N+](=O)[O-])cc2)cc1` the figure was 150 to 153 °C; with `C=C(C)c1cccc(-n2c(C(F)(F)F)nn(C)c2=S)c1`, 64 to 66 °C. With `N#CC(C#N)=C1N(CCN2CCCCC2)CCN1CCN1CCCCC1` the figure was 104 to 106 °C; with `O=C(c1ccccc1)N1CCCC(c2nc(-c3ccc(F)cc3)no2)C1` (stereo not given), 82 to 83 °C. For the compound `CCCCCCCCCCCCCCCCCCNC(=O)OCC(CNS(=O)(=O)CCCCl)NC(=O)OC` (stereo not given), the melting point lay within 99 to 101 °C. In turn, `CCCN(CCCc1coc2c(OC)cccc12)C1COc2c(F)ccc(C(N)=O)c2C1` (stereo not given) had a melting point of 123 to 129 °C.

Regarding `COc1ccc2c(c1OC)CC[C@@H]1NC(=O)CC[C@H]21` (relative stereo), the melting point lay within 243 to 245 °C. The result for `CCOC(=O)c1cn(C2CC2)c2nc(N3CCC(NC(C)=O)C3)c(F)cc2c1=O` (stereo not given) reads 246 to 248 °C; that for `O=C(O)CN1C(=O)C(=Cc2ccc(O)cc2)SC1=S`, greater than 300 °C. As to `Oc1ccc2c(c1CNc1ccc(F)cc1F)CCCO2`, the melting point fell in the range of 120 to 121 °C.

Turning to `O=C(C1CCCC1)[C@H]1CCn2c(cc3ccccc32)C1`, the melting point is 69 °C. The result for `CCCCCCCCCCCCCCCCNc1ccc(C#N)cc1` reads 63 to 64 °C. Compound `CCCCOC(=O)c1cccc2c1-c1ccccc1C2=C(C#N)C#N` displayed a melting point of 99 to 100 °C.

Consider `COc1cc(N2CCCCC2)c(Cl)cc1CC(=O)O`, for which the melting point is 120 to 122 °C. The compound `N#Cc1cnn2cccc2c1Nc1ccccc1` returned a melting point of 164 °C. The result for `CN(Cc1cc(C(F)(F)F)cc(C(F)(F)F)c1)C(=O)c1c(-c2ccccc2)c2ccccc2c(=S)n1C` reads 145 to 147 °C; that for `c1cnnc(N=C2SC[C@@H]3Cc4ccccc4CN23)c1`, 140 to 142 °C; that for `Cc1c(C(=O)O)cnn1CCO`, 203 °C. With `CN1C(=O)CC[C@]2(C)c3ccc(-c4ccc(Cl)c(C(F)(F)F)c4)cc3CC[C@@H]12` the figure was 134 to 137 °C; with `CCOC(=O)C1CCC(n2nc(-c3c(-c4ccccc4)nn4ccccc34)ccc2=O)CC1` (stereo not given), 156 to 160 °C.

Regarding `CCC(C)N(C)C(=O)c1cc2sccc2c(-c2ccccc2)n1` (stereo not given), the melting point was found to be 104 °C.

On to `NC(=O)C1CCN(CCOc2ccccc2CCc2ccccc2)CC1`, for which the melting point was 60 to 63 °C.

Turning to `Cc1cccc(Nc2cc(Nc3ccc(OCC(=O)N(CCO)CCO)cc3)ncn2)c1`, the melting point was in the range of 160 to 162 °C.

For `CCc1[nH]n(-c2c(Cl)cc(Cl)cc2Cl)c2nc(Cc3cccnc3)nc(=O)c1-2`, the melting point was in the range of 257 to 260 °C. With `Cc1ccnc(-n2sc3ccccc3c2=O)c1` the figure was 195 to 196 °C; with `CCC12CCC3C(=CCC4(C)C(O)CCC34)C1(C)CCC(O)C2` (stereo not given), 165 °C.
